Each structure is given as a SMILES string. Like-named read-outs stand apart in the source and are kept apart here.

Common to all, as to format: cell-based
The subject of one assay is HIV-1 HBX2 (wild type). The experiment in a line: High throughput cytopathic effect assay in MT-4 cells, wild type HIV-1. From the text:
(§1) Compounds were screened in a miniaturized, high throughput cytopathic effect assay for activity against HIV-1 HBX2 (wild type) and HIV-1 reverse transcriptase mutants K103N and Y181C. In Tables 1 and 2 below, “w.t.” refers to results of the tested compounds run with the wildtype 1 and “w.t. assay 2” refers results of the tested compounds run with the wildtype on the same day as the testing of the compounds with the mutants. Thus, “w.t. assay 2” was run under the same conditions as the testing of the compounds with the mutants and provides a direct comparison with the results from the testing with the mutants.
(§2) Ten-point serial dilutions of compounds with half-log step size were generated in DMSO. AZT (5 μM) was used as the positive control and DMSO as the negative control. The Echo acoustic dispenser was used to deliver 200 nL of serially diluted compound into sterile 384 well tissue culture assay plates. Two million MT-4 cells were incubated with each of the 3 viruses at MOI of 0.0005 in separate 1 mL infection tubes for 1 hour at 37° C. The cells were diluted in cell culture medium (RPMI+10% FBS) to 50,000 cells/mL. The infected cells were added to 384 well assay plates containing serially dilute compounds. Assay plates were incubated for 5 days in a humidified incubator set at 37° C. and 5% CO2. To measure the cytopathic effect of HIV, 40 μL Cell TiterGlo was added to each well and the resulting luminescence signal is read with the Envision plate reader (Perkin Elmer). Data were normalized to positive and negative controls in each plate and expressed as % CPE Protection. […]
For orientation: Protection from cytopathic effect is a common read-out in antiviral testing.

For assay [1], the system named is HIV-1 reverse transcriptase mutant K103N. Put plainly: High throughput cytopathic effect assay in MT-4 cells, K103N mutant. As to conditions: for EC50: Human immunodeficiency virus 1, MT4, 120 h, read-out: MT4 EC50 (nM) against K103N; for FC against mutant K103N: fold change of EC50, K103N versus w.t. assay 2.
From the text: as §1, §2

The test system of assay [2] is HIV-1 reverse transcriptase mutant Y181C. The experiment in a line: High throughput cytopathic effect assay in MT-4 cells, Y181C mutant. The following applies: for EC50: Human immunodeficiency virus 1, MT4, 120 h, read-out: MT4 EC50 (nM) against Y181C; for FC against mutant Y181C: fold change of EC50, Y181C versus w.t. assay 2.
From the text: as §1, §2

The next assay addresses T1, hERG channels (Homo sapiens, UniProt Q12809).
T1 construct: host or cells: CHO cell line stably expressing hERG
The experiment in a line: hERG assay, whole cell recordings in CHO cell line stably expressing hERG channels. The following applies: CHO cells expressing hERG, tail current, Table 3. On the procedure: Cells were cultured in DMEM/F12 containing 10% FBS, 1% penicillin/streptomycin and 500 μg/ml G418. Before testing, cells were harvested using Accumax (Innovative Cell Technologies).
Cells were voltage clamped at a holding potential of −80 mV. The hERG current was then activated by a depolarizing step to −50 mV for 300 ms. This first step at −50 mV was used as a baseline for measuring peak amplitude of the tail current. Next, a voltage step to +20 mV was applied for 5 s to activate the channels. Finally, a step back to −50 mV for 5 s removed activation and the deactivating tail current was recorded.
Solutions were mixed by sonication for 20 min, followed by vigorous vortexing. Prior to testing, compounds were diluted to test concentrations in glass vials using External Solution. Dilutions were prepared no longer than 20 min prior to use.
External solution containing 0.1% DMSO (vehicle) was applied to the cells to establish a baseline. […] Test article solutions were added to cells in 4 separate additions. Cells were kept in test solution until effect of the test article reached steady state, to a maximum of 12 min. Next, 1 μM cisapride (positive control) was added. Finally, washout with External Solution was performed until the recovery current reached steady state.
Background: hERG is a cardiac potassium channel; its block is linked to QT prolongation.

Setting [3] is: Human immunodeficiency virus 1, MT4, 120 h, MT-4 cells, HIV-1 wild type, 5 days, CPE protection (Cell TiterGlo), read-out: MT4 EC50 (nM) against w.t.
The mark [4] stands for this setting: Human immunodeficiency virus 1, MT4, read-out: MT4 EC50 (nM) against w.t. assay 2.

T1 sequence (Q12809 whole entry): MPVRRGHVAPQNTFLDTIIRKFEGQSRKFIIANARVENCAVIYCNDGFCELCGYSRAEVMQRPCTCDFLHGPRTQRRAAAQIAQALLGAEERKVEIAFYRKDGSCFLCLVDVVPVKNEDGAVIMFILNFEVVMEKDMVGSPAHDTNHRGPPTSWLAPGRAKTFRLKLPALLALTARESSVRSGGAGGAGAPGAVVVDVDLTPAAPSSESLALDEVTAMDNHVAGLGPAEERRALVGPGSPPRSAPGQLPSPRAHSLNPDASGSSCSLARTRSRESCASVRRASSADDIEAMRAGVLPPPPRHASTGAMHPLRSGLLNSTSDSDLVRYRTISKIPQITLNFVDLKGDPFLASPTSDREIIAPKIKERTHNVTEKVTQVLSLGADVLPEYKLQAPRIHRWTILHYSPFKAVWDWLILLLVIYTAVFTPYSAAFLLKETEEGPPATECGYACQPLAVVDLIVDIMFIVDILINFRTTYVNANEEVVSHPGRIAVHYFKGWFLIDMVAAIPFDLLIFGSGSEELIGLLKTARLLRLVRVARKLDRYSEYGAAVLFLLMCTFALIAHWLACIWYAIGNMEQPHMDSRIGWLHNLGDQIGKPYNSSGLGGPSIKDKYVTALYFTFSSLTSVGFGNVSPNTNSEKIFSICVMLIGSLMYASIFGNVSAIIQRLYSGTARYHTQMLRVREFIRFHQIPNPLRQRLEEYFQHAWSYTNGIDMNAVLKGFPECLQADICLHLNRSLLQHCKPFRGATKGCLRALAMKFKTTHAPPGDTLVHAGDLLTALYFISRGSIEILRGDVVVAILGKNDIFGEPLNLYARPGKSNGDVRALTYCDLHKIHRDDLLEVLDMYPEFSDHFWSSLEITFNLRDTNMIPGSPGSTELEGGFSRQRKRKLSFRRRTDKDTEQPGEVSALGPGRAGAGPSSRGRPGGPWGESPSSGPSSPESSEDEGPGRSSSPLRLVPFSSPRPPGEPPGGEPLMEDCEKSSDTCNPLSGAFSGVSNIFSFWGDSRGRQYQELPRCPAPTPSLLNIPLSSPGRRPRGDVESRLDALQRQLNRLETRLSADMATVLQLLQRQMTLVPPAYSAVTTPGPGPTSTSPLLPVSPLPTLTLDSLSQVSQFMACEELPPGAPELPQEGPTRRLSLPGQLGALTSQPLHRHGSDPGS

With `Cc1cc(/C=C/C#N)cc(C)c1-c1ccnc2c(N)nc(Nc3ccc(C#N)cc3)nc12` [Compound 3, (E)-4-((4-amino-8-(4-(2-cyanovinyl)-2,6-dimethylphenyl)pyrido[3,2-d]pyrimidin-2-yl)amino)benzonitrile], in the assay on HIV-1 HBX2 (wild type) (setting [3]), the EC50 stood at 4.6 nM.

Regarding `Cc1cc(/C=C/C#N)cc(C)c1-c1nccc2c(N)nc(Nc3ccc(C#N)cc3)nc12` [Compound 1, (E)-4-((4-Amino-8-(4-(2-cyanovinyl)-2,6-dimethylphenyl)pyrido[3,4-d]pyrimidin-2-yl)amino)benzonitrile], the EC50 in assay [1] was found to be 2.3 nM; in assay [2], 5.5 nM; with HIV-1 HBX2 (wild type) (setting [3]), 2.1 nM; in the assay with HIV-1 HBX2 (wild type) (setting [4]), 1.4 nM. The “FC against mutant K103N” value in assay [1] is listed as 1.7. For the same compound, the “FC against mutant Y181C” value in assay [2] amounted to 4.0.

On hERG channels, `Cc1cc(/C=C/C#N)cc(C)c1-c1cncc2c(N)nc(Nc3ccc(C#N)cc3)nc12` [Compound 2, (E)-4-((4-Amino-8-(4-(2-cyanovinyl)-2,6-dimethylphenyl)pyrido[4,3-d]pyrimidin-2-yl)amino)benzonitrile] came in with an IC50 of 1700 nM. The half-maximal effective concentration (EC50) is 14.3 nM in assay [1], 40.4 nM in assay [2], 6.1 nM with HIV-1 HBX2 (wild type) (setting [3]) and 12.6 nM in the assay on HIV-1 HBX2 (wild type) (setting [4]). Further, the “FC against mutant K103N” value in assay [1] amounted to 1.1. In addition, the “FC against mutant Y181C” value in assay [2] was found to be 3.2.

For orientation: EC50 means the concentration needed to bring the measured effect to its halfway point. As a reminder, the IC50 is the concentration at which inhibition is half-maximal.

(Values after patent US9701677B2, “Fused pyrimidine compounds” (Gilead Sciences, Inc., priority 2014, dated 2017).)
